Inconclusive results and toxic doses are left out.
Test system: L1210 leukemia ip in BDF1 mice, survival T/C
Assay: NCI In Vivo Anticancer Drug Screen. Data for tumor model L1210 Leukemia (intraperitoneal) in B6D2F1 (BDF1) mice
Details: higher = longer survival
Procedure, shortened: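 Mice bearing the transplanted tumor received compound or vehicle. Survival of the treated group was divided by that of the vehicle-treated control group to give the ratio.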

[1] = endpoint: mean survival time, dose: 400.0 mg/kg/injection, schedule: Q04DX003 (ip), vehicle: saline
[2] = endpoint: mean survival time, dose: 100.0 mg/kg/injection, schedule: Q01DX001 (ip), vehicle: saline
[3] = endpoint: mean survival time, dose: 200.0 mg/kg/injection, schedule: Q01DX001 (ip), vehicle: saline
[4] = endpoint: mean survival time, dose: 400.0 mg/kg/injection, schedule: Q01DX001 (ip), vehicle: saline
[5] = endpoint: mean survival time, dose: 100.0 mg/kg/injection, schedule: Q01DX009 (ip), vehicle: Klucel (hydroxypropylcellulose) (HPC)
[6] = endpoint: mean survival time, dose: 100.0 mg/kg/injection, schedule: Q04DX003 (ip), vehicle: saline
[7] = endpoint: mean survival time, dose: 200.0 mg/kg/injection, schedule: Q01DX009 (ip), vehicle: Klucel (hydroxypropylcellulose) (HPC)
[8] = endpoint: mean survival time, dose: 200.0 mg/kg/injection, schedule: Q04DX003 (ip), vehicle: saline
[9] = endpoint: mean survival time, dose: 400.0 mg/kg/injection, schedule: Q01DX009 (ip), vehicle: Klucel (hydroxypropylcellulose) (HPC)

For `CN(C)N=Nc1ccc(S(=O)(=O)Nc2ncccn2)cc1`, the T/C (endpoint: mean survival time, dose: 100.0 mg/kg/injection, schedule: Q04DX002 (ip), vehicle: saline with Tween-80) was 114 % of control, the T/C (endpoint: mean survival time, dose: 264.0 mg/kg/injection, schedule: Q04DX003 (ip), vehicle: saline with Tween-80) was 100 % of control and the T/C (endpoint: mean survival time, dose: 400.0 mg/kg/injection, schedule: Q04DX002 (ip), vehicle: saline with Tween-80) was 177 % of control. For the same molecule, the T/C (endpoint: mean survival time, dose: 400.0 mg/kg/injection, schedule: Q04DX003 (ip), vehicle: saline with Tween-80) was 105 % of control, the T/C [1] was 176 % of control and the T/C (endpoint: mean survival time, dose: 600.0 mg/kg/injection, schedule: Q04DX003 (ip), vehicle: saline) was 124 % of control.

For `CCCC(C)(C)C(=O)Nc1cccc(OC(=O)NC(C)(C)C)c1`, the T/C (endpoint: mean survival time, dose: 100.0 mg/kg/injection, schedule: Q01DX009 (ip), vehicle: saline with Tween-80) was 88 % of control, the T/C (endpoint: mean survival time, dose: 200.0 mg/kg/injection, schedule: Q01DX009 (ip), vehicle: saline with Tween-80) was 86 % of control and the T/C (endpoint: mean survival time, dose: 400.0 mg/kg/injection, schedule: Q01DX009 (ip), vehicle: saline with Tween-80) was 89 % of control.

`COC(=O)C12CCC1(Cl)CC2` (configuration not stated) was tested, and the T/C [2] was 94 % of control, the T/C [3] was 95 % of control and the T/C [4] was 100 % of control.

`O=C(NCCCl)NC1OC(CO)C(O)C(O)C1O` (configuration not stated) was tested, and the T/C [2] was 107 % of control, the T/C [3] was 101 % of control and the T/C [4] was 96 % of control.

In the case of `CCC(OBr)C1COC(Nc2ccccc2)O1` (configuration not stated), the T/C [5] is reported as 96 % of control, the T/C [6] is reported as 95 % of control and the T/C [7] is reported as 96 % of control. For the same molecule, the T/C [8] was 105 % of control, the T/C [9] was 103 % of control and the T/C [1] was 101 % of control.

In the case of `O=C(N1C(c2ccc(Cl)cc2)CC2(CC1c1ccc(Cl)cc1)SSC1(CC(c3ccc(Cl)cc3)N(C(=O)C(F)(F)F)C(c3ccc(Cl)cc3)C1)S2)C(F)(F)F` (configuration not stated), the T/C (endpoint: mean survival time, dose: 100.0 mg/kg/injection, schedule: Q01DX009 (ip), vehicle: saline) is reported as 102 % of control, the T/C [6] is reported as 95 % of control and the T/C (endpoint: mean survival time, dose: 200.0 mg/kg/injection, schedule: Q01DX009 (ip), vehicle: saline) is reported as 98 % of control. The T/C [8] was 97 % of control, the T/C (endpoint: mean survival time, dose: 400.0 mg/kg/injection, schedule: Q01DX009 (ip), vehicle: saline) was 105 % of control and the T/C [1] was 95 % of control.

In the case of `O=C1c2ccccc2-c2c1nc1ccccc1[n+]2[O-]`, the T/C (endpoint: mean survival time, dose: 75.0 mg/kg/injection, schedule: Q01DX001 (ip), vehicle: saline sonified) is reported as 89 % of control, the T/C (endpoint: mean survival time, dose: 150.0 mg/kg/injection, schedule: Q01DX001 (ip), vehicle: saline sonified) is reported as 92 % of control and the T/C (endpoint: mean survival time, dose: 300.0 mg/kg/injection, schedule: Q01DX001 (ip), vehicle: saline sonified) is reported as 92 % of control.

In the case of `CC12CCCCCCC1O2` (configuration not stated), the T/C (endpoint: mean survival time, dose: 75.0 mg/kg/injection, schedule: Q01DX001 (ip), vehicle: other) is reported as 100 % of control, the T/C (endpoint: mean survival time, dose: 150.0 mg/kg/injection, schedule: Q01DX001 (ip), vehicle: other) is reported as 89 % of control and the T/C (endpoint: mean survival time, dose: 300.0 mg/kg/injection, schedule: Q01DX001 (ip), vehicle: other) is reported as 95 % of control.

For `CCOc1ccc(NC(=O)c2cccc(C(=O)Nc3ccc(OCC)cc3)c2)cc1`, the T/C [5] was 104 % of control, the T/C (endpoint: mean survival time, dose: 100.0 mg/kg/injection, schedule: Q04DX003 (ip), vehicle: Klucel (hydroxypropylcellulose) (HPC)) was 91 % of control and the T/C [7] was 101 % of control. The T/C (endpoint: mean survival time, dose: 200.0 mg/kg/injection, schedule: Q04DX003 (ip), vehicle: Klucel (hydroxypropylcellulose) (HPC)) was 98 % of control, the T/C [9] was 95 % of control and the T/C (endpoint: mean survival time, dose: 400.0 mg/kg/injection, schedule: Q04DX003 (ip), vehicle: Klucel (hydroxypropylcellulose) (HPC)) was 93 % of control.

With `CCCCSP(=S)(OCC)OCC` the T/C (endpoint: mean survival time, dose: 100.0 mg/kg/injection, schedule: Q04DX003 (ip), vehicle: saline with Tween-80) was 101 % of control and the T/C (endpoint: mean survival time, dose: 200.0 mg/kg/injection, schedule: Q04DX003 (ip), vehicle: saline with Tween-80) was 88 % of control.

With `C[n+]1c(-c2cc(C(F)(F)F)cc(C(F)(F)F)c2)c2cc(N)ccc2c2ccc(N)cc21` the T/C (endpoint: mean survival time, dose: 100.0 mg/kg/injection, schedule: Q01DX005 (ip), vehicle: water) was 97 % of control.

With `C[C@H](CN1CC(=O)NC(=O)C1)N1CC(=O)NC(=O)C1` the T/C (endpoint: mean survival time, dose: 25.0 mg/kg/injection, schedule: Q04DX003 (ip), vehicle: saline) was 124 % of control, the T/C (endpoint: mean survival time, dose: 25.0 mg/kg/injection, schedule: Q04DX003 (ip), vehicle: water) was 104 % of control and the T/C (endpoint: mean survival time, dose: 50.0 mg/kg/injection, schedule: Q04DX003 (ip), vehicle: saline) was 117 % of control. The T/C (endpoint: mean survival time, dose: 50.0 mg/kg/injection, schedule: Q04DX003 (ip), vehicle: water) was 110 % of control, the T/C [6] was 117 % of control and the T/C [8] was 158 % of control. The T/C (endpoint: mean survival time, dose: 200.0 mg/kg/injection, schedule: Q04DX003 (ip), vehicle: water) was 152 % of control, the T/C [1] was 182 % of control and the T/C (endpoint: mean survival time, dose: 400.0 mg/kg/injection, schedule: Q04DX003 (ip), vehicle: water) was 184 % of control. The T/C (endpoint: mean survival time, dose: 800.0 mg/kg/injection, schedule: Q04DX003 (ip), vehicle: saline) was 187 % of control, the T/C (endpoint: mean survival time, dose: 800.0 mg/kg/injection, schedule: Q04DX003 (ip), vehicle: water) was 107 % of control and the T/C (endpoint: median survival time, dose: 8.0 mg/kg/injection, schedule: Q03HX008 (ip), vehicle: saline) was 153 % of control. For the same molecule, the T/C (endpoint: median survival time, dose: 8.0 mg/kg/injection, schedule: Q03HX016 (ip), vehicle: saline) was 204 % of control, the T/C (endpoint: median survival time, dose: 16.0 mg/kg/injection, schedule: Q01DX009 (sc), vehicle: saline) was 152 % of control and the T/C (endpoint: median survival time, dose: 16.0 mg/kg/injection, schedule: Q03HX008 (ip), vehicle: saline) was 163 % of control. For the same molecule, the T/C (endpoint: median survival time, dose: 16.0 mg/kg/injection, schedule: Q03HX016 (ip), vehicle: saline) was 203 % of control, the T/C (endpoint: median survival time, dose: 16.0 mg/kg/injection, schedule: Q03HX024 (ip), vehicle: saline) was 98 % of control and the T/C (endpoint: median survival time, dose: 32.0 mg/kg/injection, schedule: Q01DX009 (sc), vehicle: saline) was 156 % of control. For the same molecule, the T/C (endpoint: median survival time, dose: 32.0 mg/kg/injection, schedule: Q03HX008 (ip), vehicle: saline) was 160 % of control, the T/C (endpoint: median survival time, dose: 32.0 mg/kg/injection, schedule: Q03HX024 (ip), vehicle: saline) was 94 % of control and the T/C (endpoint: median survival time, dose: 64.0 mg/kg/injection, schedule: Q01DX001 (ip), vehicle: saline) was 102 % of control. For the same molecule, the T/C (endpoint: median survival time, dose: 64.0 mg/kg/injection, schedule: Q01DX009 (sc), vehicle: saline) was 110 % of control, the T/C (endpoint: median survival time, dose: 64.0 mg/kg/injection, schedule: Q04DX003 (ip), vehicle: saline) was 108 % of control and the T/C (endpoint: median survival time, dose: 64.0 mg/kg/injection, schedule: Q04DX003 (sc), vehicle: saline) was 121 % of control. The T/C (endpoint: median survival time, dose: 64.0 mg/kg/injection, schedule: Q08DX002 (ip), vehicle: saline) was 109 % of control, the T/C (endpoint: median survival time, dose: 128.0 mg/kg/injection, schedule: Q01DX001 (ip), vehicle: saline) was 107 % of control and the T/C (endpoint: median survival time, dose: 128.0 mg/kg/injection, schedule: Q01DX009 (sc), vehicle: saline) was 93 % of control. For the same molecule, the T/C (endpoint: median survival time, dose: 128.0 mg/kg/injection, schedule: Q03HX008 (ip), vehicle: saline) was 152 % of control, the T/C (endpoint: median survival time, dose: 128.0 mg/kg/injection, schedule: Q04DX003 (ip), vehicle: saline) was 124 % of control and the T/C (endpoint: median survival time, dose: 128.0 mg/kg/injection, schedule: Q08DX002 (ip), vehicle: saline) was 107 % of control. The T/C (endpoint: median survival time, dose: 256.0 mg/kg/injection, schedule: Q01DX001 (ip), vehicle: saline) was 109 % of control, the T/C (endpoint: median survival time, dose: 256.0 mg/kg/injection, schedule: Q04DX003 (sc), vehicle: saline) was 172 % of control and the T/C (endpoint: median survival time, dose: 512.0 mg/kg/injection, schedule: Q01DX001 (ip), vehicle: saline) was 120 % of control. The T/C (endpoint: median survival time, dose: 512.0 mg/kg/injection, schedule: Q04DX003 (ip), vehicle: saline) was 157 % of control, the T/C (endpoint: median survival time, dose: 512.0 mg/kg/injection, schedule: Q04DX003 (sc), vehicle: saline) was 202 % of control and the T/C (endpoint: median survival time, dose: 512.0 mg/kg/injection, schedule: Q08DX002 (ip), vehicle: saline) was 121 % of control. For the same molecule, the T/C (endpoint: median survival time, dose: 1024.0 mg/kg/injection, schedule: Q04DX003 (ip), vehicle: saline) was 193 % of control, the T/C (endpoint: median survival time, dose: 1024.0 mg/kg/injection, schedule: Q04DX003 (sc), vehicle: saline) was 180 % of control and the T/C (endpoint: median survival time, dose: 1024.0 mg/kg/injection, schedule: Q08DX002 (ip), vehicle: saline) was 179 % of control.

`O=C(O)COc1ccc2ccccc2c1Cl` was tested, and the T/C (endpoint: mean survival time, dose: 100.0 mg/kg/injection, schedule: Q04DX002 (ip), vehicle: Klucel (hydroxypropylcellulose) (HPC)) was 86 % of control, the T/C (endpoint: mean survival time, dose: 200.0 mg/kg/injection, schedule: Q04DX002 (ip), vehicle: Klucel (hydroxypropylcellulose) (HPC)) was 89 % of control and the T/C (endpoint: mean survival time, dose: 400.0 mg/kg/injection, schedule: Q04DX002 (ip), vehicle: Klucel (hydroxypropylcellulose) (HPC)) was 92 % of control.

In the case of `O=C(Nc1ccc(Cl)cc1)OCCN(CCOC(=O)Nc1ccc(Cl)cc1)Cc1ccccc1`, the T/C [2] is reported as 101 % of control, the T/C [3] is reported as 95 % of control and the T/C [4] is reported as 95 % of control.

From PubChem BioAssay AID248 (DTP/NCI, 2004)
